ChEMBL document CHEMBL3608223, “Quinolizidine alkaloids reduced mortality in EV71-infected mice by compensating for the levels of T cells” (2015)
The source made the active and inactive calls. The calls are words filed in the database; no cut-off is given here.

Experiments:
Enterovirus A71 [1] = assay: Antiviral activity against human enterovirus 71 infected in ICR mouse assessed as increase in survival rate at 50 mg/kg, ip qd for 8 days dosed 2 hrs post infection and measured at 14 days post infection; assay type: functional
Enterovirus A71 [2] = assay: Antiviral activity against human enterovirus 71 infected in ICR mouse assessed as reduction in mouse body weight loss at 15 mg/kg, ip qd for 8 days dosed 2 hrs post infection; assay type: functional, organism-based
Mus musculus [3] = assay: Immunoregulatory activity in […] mouse assessed as increase in CD4+ T cells at 60 mg/kg, ip once daily for 8 days by flow cytometry; assay type: functional, organism-based; details: T-cell
Mus musculus [4] = assay: Immunoregulatory activity in […] mouse assessed as reduction in NK cells at 60 mg/kg, ip once daily for 8 days by flow cytometry; assay type: functional, organism-based
Enterovirus A71 [5] = assay: Antiviral activity against human enterovirus 71 infected in ICR mouse assessed as reduction in viral replications in muscle at 15 mg/kg, ip qd for 8 days dosed 2 hrs post infection and measured at 8 days post infection by qRT-PCR method; assay type: functional, organism-based
Enterovirus A71 [6] = assay: Antiviral activity against human enterovirus 71 infected in ICR mouse assessed as increase in survival rate at 15 mg/kg, ip qd for 8 days dosed 2 hrs post infection and measured at 14 days post infection; assay type: functional
Enterovirus A71 [7] = assay: Antiviral activity against human enterovirus 71 infected in ICR mouse assessed as reduction in viral infection related clinical scores at 15 mg/kg, ip qd for 8 days dosed 2 hrs post infection and measured at 8 days post infection; assay type: functional, organism-based
Enterovirus A71 [8] = assay: Antiviral activity against human enterovirus 71 infected in ICR mouse assessed as reduction in viral infection realted clinical scores at 15 mg/kg, ip qd for 8 days dosed 2 hrs post infection; assay type: functional, organism-based
Mus musculus [9] = assay: Immunoregulatory activity in […] mouse assessed as reduction in B cells at 60 mg/kg, ip once daily for 8 days by flow cytometry; assay type: functional, organism-based
Mus musculus [10] = assay: Immunoregulatory activity in […] mouse infected with human enterovirus 71 assessed as increase in CD8+ T cells at 15 mg/kg, ip once daily for 8 days by flow cytometry and measured at 8 days post infection; assay type: functional, organism-based; details: T-cell
Mus musculus [11] = assay: Immunoregulatory activity in […] mouse assessed as increase in CD8+ T cells at 60 mg/kg, ip once daily for 8 days by flow cytometry; assay type: functional, organism-based; details: T-cell
Enterovirus A71 [12] = assay: Antiviral activity against human enterovirus 71 infected in ICR mouse assessed as reduction in viral infection-induced phenotypic changes by measuring ruffled hair incidences at 15 mg/kg, ip qd for 8 days dosed 2 hrs post infection and measured at 8 days post infection; assay type: functional, organism-based
Enterovirus A71 [13] = assay: Antiviral activity against human enterovirus 71 infected in ICR mouse assessed as mouse recovery from infection in 15 mg/kg, ip qd for 8 days dosed 2 hrs post infection and measured at 14 days post infection; assay type: functional, organism-based
Mus musculus [14] = assay: Immunoregulatory activity in […] mouse assessed as increase in CD3+ T cells at 60 mg/kg, ip once daily for 8 days by flow cytometry; assay type: functional, organism-based; details: T-cell
Enterovirus A71 [15] = assay: Antiviral activity against human enterovirus 71 infected in ICR mouse assessed as increase in survival rate at 7.5 mg/kg, ip qd for 8 days dosed 2 hrs post infection and measured at 14 days post infection; assay type: functional
Enterovirus A71 [16] = assay: Antiviral activity against human enterovirus 71 infected in ICR mouse assessed as increase in survival rate at 15 mg/kg, ip qd for 8 days dosed 2 hrs post infection and measured at 14 days post infection relative to control; assay type: functional, organism-based
Mus musculus [17] = assay: Immunoregulatory activity in […] mouse assessed as reduction in DC cells at 60 mg/kg, ip once daily for 8 days by flow cytometry; assay type: functional, organism-based
Mus musculus [18] = assay: Immunoregulatory activity in […] mouse infected with human enterovirus 71 assessed as increase in CD3+ T cells at 15 mg/kg, ip once daily for 8 days by flow cytometry and measured at 8 days post infection; assay type: functional, organism-based; details: T-cell
Mus musculus [19] = assay: Immunoregulatory activity in […] mouse infected with human enterovirus 71 assessed as increase in CD4+ T cells at 15 mg/kg, ip once daily for 8 days by flow cytometry and measured at 8 days post infection; assay type: functional, organism-based; details: T-cell
Enterovirus A71 [20] = assay: Antiviral activity against human enterovirus 71 infected in ICR mouse assessed as reduction in viral infection-induced phenotypic changes by measuring paralysis incidences at 15 mg/kg, ip qd for 8 days dosed 2 hrs post infection and measured at 8 days post infection; assay type: functional, organism-based
Enterovirus A71 [21] = assay: Antiviral activity against human enterovirus 71 infected in ICR mouse assessed as increase in survival rate at 30 mg/kg, ip qd for 8 days dosed 2 hrs post infection and measured at 14 days post infection; assay type: functional

Row | Compound | Activity (Mus musculus [3]) | Activity (Mus musculus [4]) | Activity (Mus musculus [9]) | Activity (Mus musculus [11]) | Activity (Mus musculus [14]) | Activity (Enterovirus A71 [16]) | Activity (Mus musculus [17]) | further results
1 | NC(=O)c1ncn([C@@H]2O[C@H](CO)[C@@H](O)[C@H]2O)n1 [RIBAVIRIN] |  |  |  |  |  |  |  | Activity (Enterovirus A71 [1]): 15%
2 | O=C1C=CC[C@@H]2[C@H]3CCC[N+]4([O-])CCC[C@@H](CN12)[C@@H]34 (stereo partly specified) [OXYSOPHOCARPINE] | Active | Active | Active | Active | Active | Active | Active | Activity (Enterovirus A71 [2]): Active; Activity (Enterovirus A71 [5]): Active; Activity (Enterovirus A71 [6]): 30%; Activity (Enterovirus A71 [7]): Active; Activity (Enterovirus A71 [8]): Active; Activity (Mus musculus [10]): Active; Activity (Enterovirus A71 [12]): Active; Activity (Enterovirus A71 [13]): Active; Activity (Enterovirus A71 [15]): 25%; Activity (Mus musculus [18]): Active; Activity (Mus musculus [19]): Active; Activity (Enterovirus A71 [20]): Active; Activity (Enterovirus A71 [21]): 25%
3 | O=C1CCC[C@@H]2[C@H]3CCC[N+]4([O-])CCC[C@@H](CN12)[C@@H]34 (stereo partly specified) | Active | Active | Active | Active | Active | Active | Active | 
4 | O=C1CCC[C@@H]2[C@H]3CCCN4CCC[C@H](CN12)[C@@H]34 | Active | Active | Active | Active | Active | Active | Active | 
5 | O=C1C=CC[C@@H]2[C@H]3CCCN4CCC[C@@H](CN12)[C@@H]34 | Active | Active | Active | Active | Active | Active | Active | 
6 | O=C1CCC[C@@H]2[C@H]3CCCN4CCC[C@@H](CN12)[C@@H]34 | Active | Active | Active | Active | Active | Active | Active | 
7 | O=c1cccc2n1C[C@@H]1CCCN3CCC[C@H]2[C@H]13 | Active | Active | Active | Active | Active | Active | Active | 
